From publication PMC12040169 (PLOS Biology, 2025)

Experiment: in vitro
Details: human, hela cells, % viability

Row | SMILES | viability at 28.5 h, 10 µM [%]
1 | NC(=O)c1cn[nH]c1C1CCCCN1Cc1cccc2c1CCOC2 (stereo not shown) [CBK304745] | 83.1
2 | COc1ccc(CN2CCN(C)CC2)cc1OCc1ccccc1 [CBK261886] | 88.2
3 | COc1cc(Nc2cncc(-c3cccs3)n2)cc(OC)c1OC [CBK065663] | 80.4
4 | COc1ccnc(N2CCCN(CCN3CCOCC3)CC2)n1 [CBK084120] | 119
5 | Cc1cccnc1Nc1ccc(C2CCCN(C(=O)Cc3c[nH]c4ccccc34)C2)nc1 (stereo not shown) [CBK285968] | 97.7
6 | O=C1N=C(NC2CCCCCC2)SC1CCNC(=O)N1CCOCC1 (stereo not shown) [CBK067687] | 110
7 | NC(=O)c1ccccc1NC(=O)c1ccc(C(=O)Nc2ccccc2C(N)=O)cc1 [CBK261167] | 106
8 | CN(C)Cc1cnn(-c2ccc(Oc3ccccc3)cc2)n1 [CBK112865] | 100
9 | CCS(=O)(=O)Nc1cc([N+](=O)[O-])ccc1OC [CBK111343] | 97
10 | CC1=C[C@@H](CO)[C@H](C(C)C)C[C@H]1Cc1nnc(-c2ccc(N(C)C)cc2)o1 [CBK289224] | 65
11 | CC(NS(=O)(=O)c1cccs1)c1ccccc1 (stereo not shown) [CBK043601] | 114
12 | O=C1CCCCCC1C(Nc1ccc2ccccc2c1)c1cccnc1 (stereo not shown) [CBK293919] | 86.4
13 | Clc1ccc(-c2csc3ncnc(SCc4ccco4)c23)cc1 [CBK265972] | 90.5
14 | FC(F)(F)c1nnc2ccc(-n3ccnc3)nn12 [CBK020041] | 96.1
15 | CCOC(=O)CN1CCN(C(=O)Nc2ccccc2Br)CC1 [CBK044156] | 103
16 | CCCn1c(C)cc2cc(NC(=O)Cn3cc(C)nn3)ccc21 [CBK281548] | 104
17 | COc1ccc(Nc2cc(-c3cccc(NC(C)=O)c3)ncn2)cn1 [CBK037125] | 95.1
18 | CCCCN(Cc1ccc(C)s1)C(=O)C1CCc2nn(C)c(=O)n2C1 (stereo not shown) [CBK307360] | 94.6
19 | N#Cc1cccc(C(=O)N2CCCC3(CCN(C(=O)Cc4c[nH]c5ccccc45)C3)C2)c1 (stereo not shown) [CBK131581] | 93.4
20 | COc1ccccc1CC(=O)NC(CCSC)c1nnc2ccccn12 (stereo not shown) [CBK306492] | 92.1
21 | Cc1ccccc1Cc1cccc(C2CCN(C(=O)Cc3ccccc3)CC2)n1 [CBK285625] | 94.7
22 | Cc1ccc2oc(-c3cc(NC(=O)Cn4cnc5c(=O)n(C)c(=O)n(C)c54)ccc3O)nc2c1 [CBK267112] | 95.1

Row | SMILES | viability at 28.5 h, 10 µM [%]
23 | O=C(CN1C(=O)c2ccccc2C1=O)Nc1cccc2cccnc12 [CBK261320] | 91.2
24 | COc1ccc(CN2CCCc3c(C)nc(C4CCCN(C(=O)C5CCC5)C4)nc32)cc1 (stereo not shown) [CBK286117] | 95.1
25 | CCOP(=O)(O)c1c([N+](=O)[O-])cc(C(F)(F)F)cc1[N+](=O)[O-] [CBK261106G] | 103
26 | CC(C)(N)CN(Cc1ccc(Cl)cc1)C(=O)Nc1ccccc1-c1ccccc1 [CBK004924] | 105
27 | Cc1cc(C)n2nc(C(=O)NCc3ccccn3)cc2n1 [CBK269015] | 89.3
28 | CCS(=O)(=O)c1ccc2oc([C@H]3CCN(C(=O)C4CCCCC4)C3)nc2c1 [CBK289381] | 104
29 | O=C(Nc1cccc(C(F)(F)F)c1)c1ccc(N2CCNCC2)c([N+](=O)[O-])c1 [CBK266274] | 100
30 | CN1CN=C2SC3(COC(c4cccc(Br)c4)OC3)C(=O)N2C1 (stereo not shown) [CBK263700] | 93.1
31 | O=c1c(N2CCC(Sc3ccccc3)CC2)nccn1Cc1ccc([N+](=O)[O-])cc1 [CBK153654] | 108
32 | Cc1cccc2c1OCC[C@@H]2Oc1cncc(N2CCNCC2)n1 [CBK172310G] | 101
33 | Cc1cc(C(=O)N2CCc3c(sc4ncnc(N)c34)C2)on1 [CBK306067] | 85.1
34 | O=C(O)C1(NCc2ccc(F)cc2)CCCCC1 [CBK287270] | 87.1
35 | CC(C)Nc1cc(OCc2ccc(F)cc2)ncn1 [CBK115654] | 103
36 | COc1cccc(CN2CC[C@@H]3[C@H](C2)[C@@H](c2ccc(F)cc2)CN3C(=O)c2ccccc2)c1 [CBK286292] | 107
37 | CCCc1cc(C(=O)N[C@@H]2CCOC[C@H]2Oc2ccc(CO)cc2)cs1 [CBK306700] | 91.6
38 | Cc1cc(C)c2c(N)c(C(=O)C(C)(C)C)sc2n1 [CBK115341] | 81.3
39 | CN(C)C(=O)c1cccc(CNc2ncnc3c2cnn3CCC#N)c1 [CBK305955] | 88.3
40 | O=C(Nc1c(F)cccc1F)n1ccc2c(N3CCNCC3)cccc21 [CBK003745C] | 89.5
41 | O=c1cc2oc3cc(O)c(O)cc3c(-c3cccc(OCc4ccc([N+](=O)[O-])cc4)c3)c-2cc1O [CBK265388] | 91
42 | O=C(c1ccc(-n2ccnc2)c(-n2cccc2)c1)N1CCSCC1 [CBK285364] | 97.4
43 | COC(=O)C[C@@H](C)NC(=O)[C@](OC)(c1ccccc1)C(F)(F)F [CBK017864] | 98.6
44 | N=c1n(CCCOc2ccccc2Cl)c2ccccc2n1CC(N)=O [CBK268927C] | 106

Row | SMILES | viability at 28.5 h, 10 µM [%]
45 | CN1CCN(C(=O)c2cnc3cc(C(F)(F)F)ccc3c2O)CC1 [CBK107423] | 105
46 | O=C(CSc1nnc(-c2ccncc2)n1-c1ccc(Cl)cc1)Nc1ccccc1-c1ccccc1 [CBK266205] | 104
47 | O=C(c1ccc2ncccc2c1)N1CCC(c2ccncc2)CC1 [CBK283684] | 90.3
48 | CCCCNC(=O)CCCN(CC)CCC1=CC2(CCCC2)c2ccccc21 [CBK013232] | 91.7
49 | CCNC(=O)N1CC2(CCN(Cc3ccc4ccccc4c3)CC2)c2ccccc21 [CBK126696] | 90
50 | COC(Cc1nc2ccccc2s1)C(=O)O (stereo not shown) [CBK265806] | 101
51 | Cc1ccc(C2(O)CCN(C(=O)CC3CCN(C(=O)CC4CCCCC4)CC3)C2)cc1 (stereo not shown) [CBK286132] | 96.9
52 | CCCCNC(=O)NC1CCCC1 [CBK027084] | 101
53 | COc1cc(-c2cncc(Nc3cccc(C(F)(F)F)c3)n2)cc(OC)c1OC [CBK065213] | 120
54 | COc1ccc(CC(=O)N2CCC(c3cc4ncccc4[nH]3)CC2)cc1 [CBK283386] | 84.3
55 | CS(=O)(=O)NC1CCCN(c2ncnc3ccccc23)C1 (stereo not shown) [CBK305619] | 111
56 | NNC(=O)c1cc2ccccc2cc1NS(=O)(=O)c1ccccc1 [CBK263261] | 84.4
57 | CCCc1nnc2sc(C3CCC(=O)N(CC(C)C)C3)nn12 (stereo not shown) [CBK307207] | 95.6
58 | O=C(NC1CC1)c1cnc2ccc(F)cc2c1O [CBK307629] | 82.4
59 | O=C(Cc1cc(F)c(F)c(F)c1)Nc1ccc2[nH]ccc2c1 [CBK159684] | 91.7
60 | CC(=O)N1CCC(NC[C@H]2C[C@@H]3CCN2C[C@@H]3c2cc(C3CCCC3)nc(C)n2)CC1 [CBK289129] | 84.3
61 | CCN(CCC(C)Sc1ccccc1)c1cncc(Oc2ccc(S(C)(=O)=O)cc2)n1 (stereo not shown) [CBK137186T] | 96.5
62 | Fc1cccc(Cl)c1CNc1ccc(CNc2ncn[nH]2)cc1 [CBK267245] | 93.1
63 | Cc1ccsc1CN1CCOCC1 [CBK026429] | 110
64 | O=C(NCCc1cccs1)NCc1cc(F)ccc1F [CBK045363] | 97.1
65 | COc1ccc(C(=O)OC(C)(C)C)c(-c2cncc(N3CCCCC3CCO)n2)c1 (stereo not shown) [CBK037786] | 104
66 | O=C1CNC(=O)C2(C/C=C/C[C@H]3COCC[C@H]3N1)CCN(Cc1ccc(F)cn1)CC2 [CBK292160] | 110

Row | SMILES | viability at 28.5 h, 10 µM [%]
67 | O=C(NC(n1cnc2c(N3CCCCC3)ncnc21)C(Cl)(Cl)Cl)c1ccccc1 (stereo not shown) [CBK261038] | 98.5
68 | Cc1cc(OCC(O)CN(Cc2ccccc2)C(C)(C)C)ccc1[N+](=O)[O-] (stereo not shown) [CBK086757] | 99.6
69 | CCc1nnc(N/N=C/c2cccs2)n1N [CBK026233C] | 97.9
70 | CCS(=O)(=O)N1C2CCC(C2)[C@H]1COc1ccc(F)cc1 (stereo partly shown) [CBK285280] | 109
71 | O=C(O)c1ccn(-c2ccc(NS(=O)(=O)c3ccc(N4CCCC4=O)cc3)cc2)n1 [CBK298327] | 102
72 | CCOC(=O)c1cnc(Nc2nc3ccccc3o2)nc1CSc1ncccn1 [CBK268885] | 103
73 | CC(O)(c1ccncc1)c1nccs1 (stereo not shown) [CBK281504] | 90.1
74 | O=C(Nn1cnnc1)c1ccccc1CCc1ccccc1 [CBK268578] | 87.7
75 | O=C(NCc1ccc2c(c1)OCO2)C1(c2ccccc2)CCCC1 [CBK149530] | 89.8
76 | Cc1csc(C(Cc2ccsc2)NC(=O)c2ccc(=O)[nH]c2)n1 (stereo not shown) [CBK285109] | 95.2
77 | CCOCCCNC(=O)c1cnn2c(C)c(Cc3cccc(C#N)c3)c(C)nc12 [CBK162081] | 101
78 | O=S(=O)(c1ccc(Cl)cc1)N1CCN(S(=O)(=O)N2CCCCC2)CC1 [CBK267075] | 96.1
79 | CN(Cc1ccc(Br)cc1)C(=O)CNS(=O)(=O)c1cnn(C)c1 [CBK304553] | 82.5
80 | Nc1cccc(-c2ccc(NCc3cc(F)c(F)c(F)c3)nc2)c1 [CBK036985] | 97.2
81 | CC1(C)CC(=O)C2=C(C1)NC(SCC(=O)Nc1ccc(S(=O)(=O)N3CCCCC3)cc1)=C(C#N)C2c1ccco1 (stereo not shown) [CBK266695] | 94.3
82 | COc1ccccc1-c1nccnc1OCCc1ccc(NC(C)=O)cc1 [CBK106815] | 115
83 | COc1cc(CNc2nccnc2-c2ccc(C(=O)N3CCOCC3)cc2)cc(OC)c1 [CBK036866] | 99.2
84 | COc1ccc2c(c1)CCCN2C(=O)Cn1nc(C)cc1C [CBK282042] | 91.5
85 | COc1ccc(CCCC(=O)Nc2c(C)nn(C)c2N2CCNCC2)cc1OC [CBK050252T] | 93
86 | CN(C)c1ccc(/C=N/NC(=O)CCn2c3ccccc3c3cc(I)ccc32)cc1 [CBK262902] | 84.5

Same assay, conditions: human, hela cells, % viability, bulk resorufin, single well

Row | SMILES | viability at 28.5 h, 10 µM [%]
87 | CC(=O)N1CCC2(CC1)OCc1cc(-c3ccccc3C#N)ccc1O2 [CBK061006] | 100
88 | Cc1cccc(N2C(=O)/C(=C/c3ccccc3OCc3ccc(C(=O)O)cc3)C(=O)NC2=S)c1 [CBK264100] | 95.3
